{"source": "patent US20180311334A1", "about": "“Compositions and Methods for Inducing an Immune Response” (Yale University, priority 2017, published 2018)", "key": {"[1]": {"system": "murine bone marrow-derived macrophages", "experiment": "qPCR of cytokine mRNA in bone marrow-derived macrophages (BMM)", "type": "cell-based, C57BL/6 mice", "settings": "1 μM soluble xyliquimod, 12 hours, WT and TLR7KO BMM", "procedure": "Finally, before leaving the sortase-based xyliquimod incorporation approach behind altogether, it was tested it in a more physiologically relevant experimental system. To this end, stimulations in murine bone marrow-derived macrophages (BMM) were performed and the resulting immune responses were assessed by quantifying expression of IL-1β, a pro-inflammatory cytokine transcriptionally regulated by NFκB. Besides more accurately recapitulating the physiological response to an immune stimulus than the RAW-NFκB-sLuc assay, the primary macrophage model offered two additional advantages over reporter cell lines. First, the dynamic range of qPCR analysis is far greater than that of the luciferase assay, so smaller differences in immune activation can be detected more readily. […]\nAfter stimulation of BMDCs and BMMs, the supernatant was removed, cells were lysed, and RNA was isolated using the RNeasy kit (Qiagen, Germantown, Md.) according to manufacturer's instructions. cDNA was reverse-transcribed with an oligo(dT) primer using Moloney murine leukemia virus reverse transcriptase (MMLV RT). cDNA was analyzed in triplicate by qPCR amplification using SYBR Green Supermix (Life Technologies, Carlsbad, Calif.) on a Bio-Rad CFX96 Real-Time PCR Detection System (Bio-Rad, Hercules, Calif.). […]"}, "[2]": {"system": "WT S. aureus Newman", "experiment": "S. aureus growth in presence of copper (optical density)", "type": "cell-based, Staphylococcus aureus", "settings": "2 mM copper, 4.25 hours, absorbance at 600 nm", "procedure": "WT S. aureus Newman was grown in the presence and absence of 2 mM copper for 4.25 hours. Growth was monitored by optical density: absorbance measurements were taken every 15 minutes at 600 nm."}}}
{"compound": "CCCCc1nc2c(N)nc3ccccc3c2n1Cc1ccc(CN)cc1", "note": "[xyliquimod, 1-(4-(aminomethyl)benzyl)-2-butyl-1Himidazo[4,5-c]quinolin-4-amine]", "values": [{"measurement": "IL-1β mRNA expression", "setting": "[1]", "result": "active in WT and not TLR7KO macrophages"}]}
{"compound": "copper", "values": [{"measurement": "S. aureus growth", "setting": "[2]", "result": "completely inhibit S. aureus growth"}]}
